The target of assay [1] is T1, Tyrosine-protein kinase BTK (Homo sapiens, UniProt Q06187). Kind of assay: 100P Btk Enzyme Activity Assay: Btk enzymatic activity was determined with the LANCE (Lanthanide Chelate Excite) TR-FRET (lime-resolved fluorescence resonance energy transfer) assay. […] To each well of a black non-binding surface Corning 384-well microplate (Corning Catalog #3820), 5 nL of compound (2000 fold dilution in final assay volume of 10 μL) was dispensed, followed by the addition of 7.5 μL of 1× kinase buffer (50 mM Hepes 7.5, 10 mM MgCl2, 0.01% Brij-35, 1 mM EGTA, 0.05% BSA & 1 mM DTT) containing 13.3 pg/μL (133.3 pM) of 100P Btk enzyme (recombinant protein from baculovirus-transfected Sf9 cells: full-length Btk; MW=79378 Da). Following a 60 minute compound and enzyme incubation, each reaction was initiated by the addition of 2.5 μL 1× kinase buffer containing 8 μM biotinylated “A5” peptide (Biotin-EQEDEPEGDYFEWLE-NH2) (SEQ.ID.NO.: 1) and 100 μM ATP. The final reaction in each well of 10 consists of 100 pM 100P Btk, 2 μM biotin-A5-peptide, and 25 μM ATP. Phosphorylation reactions were allowed to proceed for 45 minutes. Reactions were immediately quenched by the addition of 20 uL of 1× quench buffer (15 mM EDTA, 25 mM Hepes 7.3, and 0.1% Triton X-100) containing detection reagents (0.626 nM of LANCE-Eu-W1024-anti-phosphoTyrosine antibody, PerkinElmer and 86.8 nM of Streptavidin-conjugated Dylight 650, Dyomics/ThermoFisher Scientific). […]. In general terms: In TR-FRET formats the signal depends on donor and acceptor labels being close together.

Assay [2] deals with T1, Tyrosine-protein kinase BTK. Kind of assay: 25P Btk Enzyme Activity Assay: Btk enzymatic activity was determined with the LANCE (Lanthanide Chelate Excite) TR-FRET (lime-resolved fluorescence resonance energy transfer) assay. […] To each well of a black non-binding surface Corning 384-well microplate (Corning Catalog #3820), 5 nL of compound (2000 fold dilution in final assay volume of 10 μL) was dispensed, followed by the addition of 7.5 μL of 1× kinase buffer (50 mM Hepes 7.5, 10 mM MgCl2, 0.01% Brij-35, 1 mM EGTA, 0.05% BSA and 1 mM DTT) containing 26.67 pg/μL (266.7 pM) of 25P Btk enzyme (recombinant protein from baculovirus-transfected Sf9 cells: full-length Btk; MW=79378 Da). Following a 60 minute compound and enzyme incubation, each reaction was initiated by the addition of 2.5 μL 1× kinase buffer containing 8 μM biotinylated “A5” peptide (Biotin-EQEDEPEGDYFEWLE-NH2), and 100 μM ATP. The final reaction in each well of 10 consists of 200 pM 25P Btk, 2 μM biotin-A5-peptide, and 25 μM ATP. Phosphorylation reactions were allowed to proceed for 120 minutes. Reactions were immediately quenched by the addition of 20 uL of 1× quench buffer (15 mM EDTA, 25 mM Hepes 7.3, and 0.1% Triton X-100) containing detection reagents (0.626 nM of LANCE-Eu-W1024-anti-phosphoTyrosine antibody, PerkinElmer and 86.8 nM of Streptavidin-conjugated Dylight 650, Dyomics/ThermoFisher Scientific). […].

T1 sequence (Q06187 whole entry): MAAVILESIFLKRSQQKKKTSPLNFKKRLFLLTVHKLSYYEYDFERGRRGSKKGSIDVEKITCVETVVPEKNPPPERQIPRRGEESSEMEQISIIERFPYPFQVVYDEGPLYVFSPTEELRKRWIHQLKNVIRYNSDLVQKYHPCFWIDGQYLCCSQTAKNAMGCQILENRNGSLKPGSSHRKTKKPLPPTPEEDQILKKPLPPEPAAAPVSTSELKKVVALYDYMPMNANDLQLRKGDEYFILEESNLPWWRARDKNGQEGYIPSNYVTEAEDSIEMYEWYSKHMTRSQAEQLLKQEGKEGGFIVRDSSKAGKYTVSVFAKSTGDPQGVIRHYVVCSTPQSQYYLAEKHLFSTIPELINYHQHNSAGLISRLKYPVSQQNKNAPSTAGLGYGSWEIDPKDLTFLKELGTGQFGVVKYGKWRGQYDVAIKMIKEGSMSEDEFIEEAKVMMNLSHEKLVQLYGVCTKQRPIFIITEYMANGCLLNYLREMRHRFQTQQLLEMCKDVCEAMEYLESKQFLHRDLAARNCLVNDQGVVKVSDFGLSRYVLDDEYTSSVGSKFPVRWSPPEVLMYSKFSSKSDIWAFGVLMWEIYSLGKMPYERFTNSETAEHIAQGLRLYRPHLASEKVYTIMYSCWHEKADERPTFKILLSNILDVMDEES

As usually defined, the IC50 is the point on the concentration scale where inhibition reaches its midpoint. With `Cc1c(NC(=O)c2ccc(C(C)(C)C)cc2F)cccc1-c1cc(-c2cnn(C)c2)c2[nH]nc(N)c2c1`, the IC50 in assay [1] was at least 1000 nM; in assay [2], 23.8 nM.

Values taken from ChEMBL document CHEMBL5726800, “Indazole and azaindazole Btk inhibitors” (2019).
